Several values for one entry are separate records, joined by “and”; a condition that tells them apart may be missing. Equal values may be shown once. Read-outs that look alike come from different tables or passages of the source.
Target: T1, native (wild-type) rabbit muscle aldolase (Oryctolagus cuniculus, UniProt P00883)
T1 construct: made in house
T1 sequence (P00883 2-364): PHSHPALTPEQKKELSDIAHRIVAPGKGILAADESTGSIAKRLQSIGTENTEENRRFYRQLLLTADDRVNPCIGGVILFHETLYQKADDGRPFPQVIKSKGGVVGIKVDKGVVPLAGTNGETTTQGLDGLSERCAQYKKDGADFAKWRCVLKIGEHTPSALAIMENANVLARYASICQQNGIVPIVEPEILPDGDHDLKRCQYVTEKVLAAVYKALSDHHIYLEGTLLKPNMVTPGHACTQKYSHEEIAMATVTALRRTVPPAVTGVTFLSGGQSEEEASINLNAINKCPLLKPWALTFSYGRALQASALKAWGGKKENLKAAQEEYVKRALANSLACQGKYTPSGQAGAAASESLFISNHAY
Assay: UV-visible differential spectroscopy (method A) of aldolase-inhibitor complex formation
Format: binding
Conditions: for ΔA relative to 432 nm / kapp: wild-type; for kapp: 431 nm
Experimental: Absorption spectra are measured using a Cary 1E Varian spectrophotometer at 25° C. The same TEA buffer is used for titrations and activity analyses. Absorption spectra are measured by two different methods, in particular as described in Gefflaut T. et al., 1986 (Bioorg. Med. Chem., 4:2043-2054) and Blonski C. et al., 1997 (Biochem J. 323:71-77).
For method A, absorption spectra are recorded as a function of time, between 250 and 500 nm, or at wavelengths corresponding to maximum or minimum absorption. Measurements are begun by adding FHN-P at varying final concentrations (0.1-1 mM) in the TEA buffer containing a fixed concentration of aldolase (10 μM of subunits). Measured absorption spectra for the enzyme complex are corrected using the absorbance of the buffer, the FHN—P, and the enzyme (measured separately). The differential absorption spectra thus obtained are used to calculate the value of the constants that define the formation of the aldolase-inhibitor complex.
The apparent first-order rate constant (kapp) and the maximum threshold variations of absorption (ΔAmax) are obtained for each test by applying the slow-binding absorption data to the first-order kinetic equation (or to both first-order kinetic mechanisms). The dissociation constant (Kd) for the Schiff base formed between the FHN-P and the aminocaproic acid is obtained from the absorption differences calculated at equilibrium by using the equation eqn.(2). The value of the dissociation constant (Ki) for the rapidly formed EI complex and that of the constant k2 correspond to the slow formation of the EI* complex resulting from analysis of the values of the first-order constants based on the equations eqn.(1) or eqn.(3).
The slight differences in band positions with the reaction model may be attributed to differences in the FHN-P protein environment in comparison to the model system. The changing spectra of absorbance differences coincides with two distinct first-order mechanisms. The rapid kinetics phase can be seen in a more significant change in absorbance and saturating behavior at a high inhibitor concentration, correlated with a total loss of enzyme activity. A slow kinetics phase can also be seen when the analyses are carried out at saturating concentrations of hexitol-P2 (10 mM). This slow kinetics phase, which corresponds to a constant thirty times weaker and which contributes to one-fourth of the final absorbance variation is not linked to the inhibition observed. At these saturating concentrations, the molar absorption coefficients relative to the linked FHN-P are calculated assuming that the for active aldolase sites are occupied: Δε431=3600±200 M^−1.cm^−1; Δε376=−2140±110 M^−1.cm^−1; Δε293=12480±650 M^−1.cm^−1; and Δε268=5080±250 M^−1.cm^−1.
Residues of lysine 106, 146 and 229 residues are located at the active aldolase sites and thus are candidates for causing inactivation by forming a Schiff base with the FHN-P. In order to identify which lysine is responsible for the differential absorbances in the presence of FHN-P, sporadic mutations of these lysine residues were created and named: K107M (Research Collaboratory for Structural Bioinformatics Protein Databank), K146M (Blonski C. et al., 1997, Biochem. J. 323:71-77) and […] (Research Collaboratory for Structural Bioinformatics Protein Databank). […] UV-visible differential spectroscopy (method A) was used to examine formation of the enzyme complex for each sporadic mutation in the presence of a fixed concentration of FHN-P (300 μM).

[1] = formation of EI* complex, UV-visible differential spectroscopy
[2] = FHN-P 300 μM, first (rapid) phase
[3] = FHN-P 300 μM, second (slow) phase

SMILES: O=Cc1c(O)ccc2cc(OP(=O)(O)O)ccc12 [FHN-P, 5-formyl-6-hydroxy-2-naphthylphosphate]
- Ki (EI complex, UV-visible differential spectroscopy, FHN-P 0.1-1 mM, aldolase 10 μM subunits, 25° C, read-out: Ki): 125000 ± 25000 nM
- Ki (calculated from the spectroscopy results, read-out: global inhibition constant Ki*): 25 nM and ~25 nM
- k2 [1]: 0.067 ± 0.004 min⁻¹
- t1/2 [1]: ~6 min
- stoichiometry of FHN-P linked per tetrameric aldolase (maximum inhibition, EI* complex): 3.9-4.2 mols of FHN-P linked per tetrameric aldolase mole
- Residual specific activity (wild-type aldolase, FHN-P 300 μM): ud (undetected)
- ΔA relative to 432 nm [2]: 100%
- kapp [2]: 0.045 ± 0.0025 min⁻¹
- ΔA relative to 432 nm [3]: 25%
- kapp [3]: 0.0015 ± 0.00035 min⁻¹
